In BindingDB's records for patent US20240010658 (Ono Pharmaceutical Co., 2024):

Biological target: T1, Monoacylglycerol lipase ABHD6 [33-337] (Homo sapiens, UniProt Q9BV23)
T1 construct: 33-337
T1 sequence (Q9BV23 whole entry): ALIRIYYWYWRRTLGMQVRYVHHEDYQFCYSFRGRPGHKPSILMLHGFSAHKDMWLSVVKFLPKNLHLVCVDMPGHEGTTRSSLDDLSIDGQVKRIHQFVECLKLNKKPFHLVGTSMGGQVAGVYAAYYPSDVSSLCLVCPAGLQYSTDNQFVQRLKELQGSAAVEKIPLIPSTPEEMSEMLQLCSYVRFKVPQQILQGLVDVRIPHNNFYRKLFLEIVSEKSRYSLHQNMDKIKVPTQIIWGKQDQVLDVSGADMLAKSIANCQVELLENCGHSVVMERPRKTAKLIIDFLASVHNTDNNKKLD
Assay: Evaluation of ABHD6 Enzyme Inhibitory Activity Assay
Protocol: The enzyme reaction was carried out at room temperature using a 384-well microplate made of polypropylene, and wells to which no enzyme was added were designated as a blank group. One hour after the start of the enzyme reaction, methanol containing, as an internal standard substance, arachidonic acid-d8 (Cayman Chemical) and 1% formic acid was added to stop enzymatic reaction. The upper part of the enzyme reaction plate was sealed with aluminum, and centrifugation was performed at 560 g for 5 minutes at room temperature. Then, arachidonic acid as an enzyme reaction product and arachidonic acid-ds as the internal standard substance were quantified with RapidFire (registered trademark)-Mass Spectrometry system.

`CN(C)c1ncc(C(=O)N2C[C@@H]3CC[C@@H](Nc4ccc(Br)nn4)[C@@H]3C2)s1` [US20240010658, Example 2-6] was tested, and the IC50 was “in the range around 2 nM”.
